Several values for one entry are separate records, joined by “and”; a condition that tells them apart may be missing. Identical values can stand only once. Entries after “also recorded” stand apart in the source; their conditions may differ. Like-named read-outs stand apart in the source and are kept apart here. Bridge positions count the residues as written; N and C are the ends. Ends that are not written are not given here. Peptide text beside a SMILES is read from it.
What was measured:
IDE = target: T1, IDE (Homo sapiens, UniProt P14735); assay: Vulnerability of peptides to degradation by IDE: 0 vs 4 h pre-incubation, then FRET1 assay; assay type: biochemical; settings: for remaining activity at 0.12207 µM / remaining activity at 0.488281 µM / remaining activity at 1.95312 µM / remaining activity at 7.8125 µM / remaining activity at 31.25 µM / remaining activity at 125 µM / remaining activity at 500 µM: 4 h, relative to DMSO-only controls, read-out: Percent Activity (normalized initial velocity of FRET1 hydrolysis); for remaining activity at 0.12207 µM: Cmpd 0.12207 uM; for remaining activity at 0.488281 µM: Cmpd 0.488281 uM; for remaining activity at 1.95312 µM: Cmpd 1.95312 uM; for remaining activity at 7.8125 µM: Cmpd 7.8125 uM; for remaining activity at 31.25 µM: Cmpd 31.25 uM; for remaining activity at 125 µM: Cmpd 125 uM; for remaining activity at 500 µM: Cmpd 500 uM; for Ki: Cheng-Prusoff from IC50, FRET1 KM 10 uM, substrate 5 uM; for IC50: FRET1 assay
T1 construct: made in house; host or cells: bacteria
T1 sequence (P14735 1-1019): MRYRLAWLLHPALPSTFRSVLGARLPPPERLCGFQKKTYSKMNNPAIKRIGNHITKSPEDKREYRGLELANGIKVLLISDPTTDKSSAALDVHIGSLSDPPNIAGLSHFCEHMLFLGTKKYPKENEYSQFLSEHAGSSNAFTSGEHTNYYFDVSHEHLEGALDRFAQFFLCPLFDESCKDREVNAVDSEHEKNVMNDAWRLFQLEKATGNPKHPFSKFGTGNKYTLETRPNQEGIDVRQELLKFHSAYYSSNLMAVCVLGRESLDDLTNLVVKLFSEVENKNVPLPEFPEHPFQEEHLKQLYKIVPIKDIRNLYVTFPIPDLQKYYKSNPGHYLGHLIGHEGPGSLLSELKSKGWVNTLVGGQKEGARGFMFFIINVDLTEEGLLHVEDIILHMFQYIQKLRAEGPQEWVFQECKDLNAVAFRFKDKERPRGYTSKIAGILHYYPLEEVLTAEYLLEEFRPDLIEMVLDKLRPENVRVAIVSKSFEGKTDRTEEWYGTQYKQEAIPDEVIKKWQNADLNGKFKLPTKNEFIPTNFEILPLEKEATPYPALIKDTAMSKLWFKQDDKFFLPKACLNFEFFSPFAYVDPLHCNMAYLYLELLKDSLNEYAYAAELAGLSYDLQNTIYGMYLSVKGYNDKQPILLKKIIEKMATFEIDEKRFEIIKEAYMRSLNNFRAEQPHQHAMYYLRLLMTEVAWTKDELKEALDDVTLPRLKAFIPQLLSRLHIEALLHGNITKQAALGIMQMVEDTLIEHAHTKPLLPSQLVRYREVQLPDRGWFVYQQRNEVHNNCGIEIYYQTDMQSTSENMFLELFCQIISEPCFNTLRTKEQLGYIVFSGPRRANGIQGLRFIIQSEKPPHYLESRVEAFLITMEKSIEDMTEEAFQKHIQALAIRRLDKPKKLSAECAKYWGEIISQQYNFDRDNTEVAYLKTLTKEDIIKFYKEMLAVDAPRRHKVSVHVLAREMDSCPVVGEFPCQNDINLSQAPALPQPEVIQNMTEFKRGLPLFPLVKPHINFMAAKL
Experimental: IDE activity was quantified by monitoring the degradation of Mca-[…](Dnp) (FRET1, 5 μM), fluoresceinated and biotinylated amyloid ß-protein (FAßB; 500 nM) or recombinant human insulin (50 nM) in PBS supplemented with 0.05% BSA. […] In vitro activity assays incorporated recombinant human IDE (1 nM) purified from bacteria. For quantitation of insulin degradation in primary murine skin fibroblasts, cells (1 x 10^5/well) were plated in 96-well plates and maintained in DMEM supplemented with 10% fetal bovine serum (FBS), 2mM glutamine, penicillin and streptomycin. After addition of insulin (10 nM or 100 nM), samples of conditioned medium were removed daily and quickly frozen, then insulin levels were quantified in parallel by ELISA according to manufacturer’s recommendations (Crystal Chem, Downers Grove, IL, USA). Assessment of the activity of P12-3A against a variety of matrix-metalloproteases was conducted using the Matrix Metalloproteinase (MMP) Inhibitor Profiling Kit, Fluorometric RED (Enzo Life Sciences, Inc., Farmingdale, NY, USA) according to manufacturer’s recommendations using the broad-spectrum MMP inhibitor, NNGH, as a positive control.

[1] = test system: primary murine skin fibroblasts; assay: Cell proliferation (CellTiter 96 AQueous); assay type: cell-based; settings: for Cell count, Mean / Cell count: P12-3A 100 uM, 100nM insulin added, cells per well; for Cell count, Mean: N 6; for Cell count: individual replicates
Experimental: Insulin promotes wound healing and overall skin health by affecting a number of processes, including cell proliferation, cell migration, and the production and secretion of ECM components, particularly type I collagen. We therefore assessed the ability of P12-3A to influence these processes in cultured skin fibroblasts and keratinocytes. To that end, primary mouse skin fibroblasts were grown for 4 d in multiple concentrations of insulin in the presence or absence of P12-3A, and insulin concentration over time was monitored by ELISA. […] Finally, the effects of P12-3A on collagen production in were assessed at both the transcriptional and the posttranslational level in confluent monolayers of fibroblasts. After 4 d of treatment with P12-3A (100 μM), mRNA levels for the major form of collagen, alpha-1 type I collagen (COL1A1), were quantified by RT-PCR and found to be increased to ~2.6 times the levels of untreated cells (Fig 4C). To assess overall levels of collagen production and secretion, we quantified levels of hydroxyproline, a modified amino acid present almost exclusively in collagen proteins. […] Western blotting also confirmed that mature, cell-associated collagen levels were increased in the presence of P12-3A (Fig 4E).
Fig 4 Effects of P12-3A on cultured skin cells. A, Insulin concentrations as a function of time in logarithmically growing primary murine skin fibroblasts in the absence or presence of P12-3A (100 μM). […] Data are mean ± SEM of 4 independent replications. *P<0.05, **P<0.01. B, Proliferation of cells in the absence or presence of P12-3A (100 μM). Data are mean ± SEM of 6 independent replications. […] C,D,E, P12-3A (100 μM) potentiates insulin-induced collagen production in skin fibroblasts. Collagen production was assessed by COL1A1 mRNA levels (C), levels of hydroxyproline secreted into the medium (D), and cell-associated mature alpha-1 type I collagen levels detected by Western blotting (E). Data are mean ± SD of 4 independent replications. *P<0.05, **P<0.01. […] Migration of HaCaT cells 48 h after induction of a scratch wound in the presence of the indicated quantities of insulin and/or P12-3A (100 μM). Data are mean ± SEM of 6 independent replications. *P<0.05, **P<0.01.
Primary murine skin fibroblasts cells (1 x 10^5/well) were plated in 96-well plates, using separate plates for each timepoint and endpoint. Cell proliferation was quantified using the CellTiter 96® AQueous Non-Radioactive Cell Proliferation Assay (Promega Corp., Madison, WI, USA) according to manufacturer’s recommendations.

[2] = 4-hr incubation, individual runs
[3] = 0-hr incubation (immediately after combining enzyme and peptide), individual runs, read-out: IC50s
[4] = 4-hr incubation, individual replicates, read-out: IC50s
[5] = 4-hr incubation, mean of 2 replicates, read-out: IC50s, Mean

Compound	remaining activity at 0.12207 µM (IDE; [2])	remaining activity at 0.488281 µM (IDE; [2])	remaining activity at 1.95312 µM (IDE; [2])	remaining activity at 7.8125 µM (IDE; [2])	remaining activity at 31.25 µM (IDE; [2])	remaining activity at 125 µM (IDE; [2])	remaining activity at 500 µM (IDE; [2])	Ki (IDE; 4-hr incubation)	IC50 (IDE; [3])	IC50 (IDE; [4])	IC50 (IDE; [5])	also measured
CC(C)C[C@H](NC(=O)[C@H](CO)NC(=O)[C@@H](N)CCC(N)=O)C(=O)N1CCC[C@H]1C(=O)N[C@@H](Cc1c[nH]c2ccccc12)C(=O)N[C@H]1CSSC[C@@H](C(=O)N[C@H](C(=O)N[C@H](C(N)=O)[C@@H](C)O)C(C)C)NC(=O)[C@H](Cc2c[nH]cn2)NC(=O)[C@@H]2CCCN2C(=O)[C@H](Cc2ccc(O)cc2)NC1=O [P12-3A] (H-QSLPWCYPHCVT-NH2; disulfide 6-10 (inferred))	101%	96.2%	95.5%	93.1%	87.4%	7.45%	0.698%					cell proliferation relative to control cells ([1]; 100 μM P12-3A, 10 nM insulin): modestly increased; also recorded: No significant differences were observed; Cell count, Mean ([1]; t 0 d): 0.15 *100,000; Cell count ([1]; t 0 d): 0.1682 *100,000 and 0.1108 *100,000 and 0.1565 *100,000 and 0.1271 *100,000 and 0.1836 *100,000 and 0.1526 *100,000; Cell count, Mean ([1]; t 1 d): 0.28 *100,000; Cell count ([1]; t 1 d): 0.0908 *100,000 and 0.3439 *100,000 and 0.3368 *100,000 and 0.2676 *100,000 and 0.3256 *100,000 and 0.3423 *100,000; Cell count, Mean ([1]; t 2 d): 0.63 *100,000; Cell count ([1]; t 2 d): 0.4380 *100,000 and 0.6462 *100,000 and 0.8125 *100,000 and 0.5756 *100,000 and 0.7135 *100,000 and 0.6125 *100,000; Cell count, Mean ([1]; t 3 d): 1.33 *100,000; Cell count ([1]; t 3 d): 1.4714 *100,000 and 1.6270 *100,000 and 1.4135 *100,000 and 1.4988 *100,000 and 1.1573 *100,000 and 0.8293 *100,000; Cell count, Mean ([1]; t 4 d): 2.46 *100,000; Cell count ([1]; t 4 d): 3.2440 *100,000 and 1.8308 *100,000 and 1.5133 *100,000 and 1.9615 *100,000 and 2.9117 *100,000 and 3.3184 *100,000
VHWDFRQWWQPS-NH2 [P12-1A]	79.1%	75%	59.1%	50.1%	33.7%	12.7%	21.4%	62.2 µM	8.43 µM	96.5 µM and 90.2 µM	93.3 µM	
VHWDFRQWWQPS [P12-1]	97.5%	104%	99%	73.2%	42.7%	10%	0.247%	105 µM		154 µM and 160 µM	157 µM	

Now from value to compound, other results behind:

remaining activity at 0.12207 µM (IDE; [2])	remaining activity at 0.488281 µM (IDE; [2])	remaining activity at 1.95312 µM (IDE; [2])	remaining activity at 7.8125 µM (IDE; [2])	remaining activity at 31.25 µM (IDE; [2])	remaining activity at 125 µM (IDE; [2])	remaining activity at 500 µM (IDE; [2])	Ki (IDE; 4-hr incubation)	IC50 (IDE; [3])	IC50 (IDE; [4])	IC50 (IDE; [5])	Compound	also measured
106%	99.5%	95.9%	104%	70.9%	8.98%	1.55%					CC(C)C[C@H](NC(=O)[C@H](CO)NC(=O)[C@@H](N)CCC(N)=O)C(=O)N1CCC[C@H]1C(=O)N[C@@H](Cc1c[nH]c2ccccc12)C(=O)N[C@H]1CSSC[C@@H](C(=O)N[C@H](C(=O)N[C@H](C(=O)O)[C@@H](C)O)C(C)C)NC(=O)[C@H](Cc2c[nH]cn2)NC(=O)[C@@H]2CCCN2C(=O)[C@H](Cc2ccc(O)cc2)NC1=O [P12-3] (H-QSLPWCYPHCVT-OH; disulfide 6-10 (inferred))	
89.9%	96.1%	86.6%	80.4%	84.9%	75.6%	30.5%	259 µM		402 µM and 377 µM	389 µM	WSPISGKFFQRF [P12-4]	
101%	96.9%	101%	97%	80.9%	60.2%	11.2%	30.6 µM	119 µM	45.1 µM and 46.8 µM	45.9 µM	QSLPWCYP-NH2 [P12-3B]	IC50 (IDE; 0-hr incubation, mean of runs, read-out: IC50s, Mean): 59.2 µM

From publication PMC5814047, “Peptidic inhibitors of insulin-degrading enzyme with potential for dermatological applications discovered via phage display” (PLoS ONE, 2018)
